One block for each compound: values may come before it. Active and inactive are the calls of the source. The calls are words filed in the database; no cut-off is given here.
Tests used:
T47D = assay: Cytotoxicity activity against human T47D cells; assay type: functional, cell-based
Mus musculus [1] = organism: Mus musculus; assay: Anti-angiogenesis activity in VEGF stimulated C57/bl6 mouse assessed as decrease in number of blood vessels at 1.25 to 20 uM measured after 10 days; assay type: functional, organism-based; details: dose 1.25-20 µM, time 10.0 day
[2] = Apparent volume of distribution in Sprague-Dawley rat at 20 mg/kg, iv administered as single dose measured upto 6 hrs by HPLC analysis; assay type: ADME, organism-based; details: in vivo, read-out: Vz
HUVEC [3] = assay: Antiangiogenic activity in HUVEC assessed as inhibition of VEGF-induced tube formation measured after 12 hrs by matrigel based analysis; assay type: functional, cell-based; details: Homo sapiens, dose 0-8 µM
[4] = Metabolic stability in Sprague-Dawley rat liver microsomes assessed as half life at 100 ug/ml measured upto 120 mins in presence of NADPH generating system by HPLC analysis; assay type: ADME, Microsome; details: dose 100 µg/ml
Mus musculus [5] = organism: Mus musculus; assay: Anti-angiogenesis activity in VEGF stimulated C57/bl6 mouse assessed as formation of new blood vessels at 20 uM measured after 10 days; assay type: functional, organism-based; details: time 10.0 day
[6] = Metabolic stability in Sprague-Dawley rat liver microsomes at 100 ug/ml measured after 30 mins in presence of NADPH generating system by HPLC analysis; assay type: ADME, Microsome; details: at 100 µg/mL, read-out: Stability
A549 [7] = assay: Inhibition of VEGF induced cell invasion in human A549 cells measured after 24 hrs by calcein-AM staining transwell invasion assay; assay type: functional, cell-based; details: dose 0-4 µM
A549 [8] = assay: Cytotoxicity against human A549 cells assessed as reduction in cell growth at 4 uM incubated for 48 hrs by CCK-8 method; assay type: functional, cell-based
[9] = AUC (0 to t) in Sprague-Dawley rat at 20 mg/kg, iv administered as single dose measured upto 6 hrs by HPLC analysis; assay type: ADME, organism-based; design: dose 20 mg/kg, time < 6 hrs, route iv; details: in vivo
[10] = Cmax in Sprague-Dawley rat at 20 mg/kg, iv administered as single dose measured upto 6 hrs by HPLC analysis; assay type: ADME, organism-based; design: dose 20 mg/kg, time < 6 hrs, route iv; details: in vivo
HUVEC [11] = assay: Cytotoxicity against human HUVEC cells assessed as reduction in cell growth at 10 uM incubated for 48 hrs by CCK-8 method; assay type: toxicity, cell-based
[12] = Subchronic toxicity in Kunming mouse assessed as drug tolerance at 50 mg/kg administered via oral gavage measured upto 10 days; assay type: organism-based; details: in vivo, 240 h, time < 10 day
A549 [13] = assay: Inhibition of cell invasion in human A549 cells at 0 to 4 uM measured after 24 hrs by calcein-AM staining transwell invasion assay; assay type: functional, cell-based; details: dose 0-4 µM
[14] = AUC (0 to infinity) in Sprague-Dawley rat at 20 mg/kg, iv administered as single dose measured upto 6 hrs by HPLC analysis; assay type: ADME, organism-based; design: time < 6 hrs, dose 20 mg/kg, route iv; details: in vivo
[15] = Metabolic stability in Sprague-Dawley rat liver microsomes at 100 ug/ml measured after 120 mins in presence of NADPH generating system by HPLC analysis; assay type: ADME, Microsome; details: at 100 µg/mL, read-out: Stability
[16] = Metabolic stability in Sprague-Dawley rat liver microsomes at 100 ug/ml measured after 60 mins in presence of NADPH generating system by HPLC analysis; assay type: ADME, Microsome; details: at 100 µg/mL, read-out: Stability
Mus musculus [17] = assay: Anti-angiogenesis activity in VEGF stimulated C57/bl6 mouse implanted with matrigel assessed as appearance of hemoglobin content in matrigel plug at 1.25 to 20 uM measured after 10 days; assay type: functional, organism-based; details: dose 1.25-20 µM, time 10.0 day
A549 [18] = assay: Antimigratory activity in human A549 cells assessed as decrease in cell migration at 4 uM incubated for 24 hrs by wound healing assay; assay type: functional, cell-based
[19] = Subchronic toxicity in Kunming mouse assessed as adverse events at 50 mg/kg administered via oral gavage measured upto 10 days; assay type: organism-based; details: in vivo, 240 h, time < 10 day
[20] = Tmax in Sprague-Dawley rat at 20 mg/kg, iv administered as single dose measured upto 6 hrs by HPLC analysis; assay type: ADME, organism-based; details: in vivo
[21] = Plasma protein binding in Sprague-Dawley rat assessed as free fraction by equilibrium dialysis analysis; assay type: ADME, cell-free
A549 [22] = assay: Cytotoxicity against human A549 cells assessed as reduction in cell growth incubated for 48 hrs by CCK-8 method; assay type: functional, cell-based
[23] = Subchronic toxicity in Kunming mouse assessed as effect on apparent behavior problem at 50 mg/kg administered via oral gavage measured upto 10 days; assay type: organism-based; details: in vivo, 240 h, time < 10 day
[24] = Half life in Sprague-Dawley rat at 20 mg/kg, iv administered as single dose measured upto 6 hrs by HPLC analysis; assay type: ADME, organism-based; details: in vivo
[25] = Cytotoxicity against human HUVEC cells assessed as reduction in cell growth incubated for 48 hrs by CCK-8 method; assay type: toxicity, cell-based
[26] = Subchronic toxicity in Kunming mouse assessed as effect on body weight at 50 mg/kg administered via oral gavage measured upto 10 days; assay type: organism-based; details: in vivo, 240 h, time < 10 day
[27] = Clearance in Sprague-Dawley rat at 20 mg/kg, iv administered as single dose measured upto 6 hrs by HPLC analysis; assay type: ADME, organism-based; details: in vivo
[28] = Metabolic stability in Sprague-Dawley rat liver microsomes at 100 ug/ml measured after 10 mins in presence of NADPH generating system by HPLC analysis; assay type: ADME, Microsome; details: at 100 µg/mL, read-out: Stability
[29] = Subchronic toxicity in Kunming mouse assessed as side effects at 50 mg/kg administered via oral gavage measured upto 10 days; assay type: organism-based; details: in vivo, 240 h, time < 10 day

Structure (SMILES): COc1ccc([C@@H](O)[C@@H](C)Oc2ccc([C@H]3O[C@H](c4ccc(O[C@H](C)[C@H](O)c5ccc(OC)c(OC)c5)c(OC)c4)[C@H](C)[C@H]3C)cc2OC)cc1OC
IC50 (T47D): 0.003 µM

Vd [2]: 5.59 L
half-life at 100 ug/ml [4]: 2.3 h
remaining at 0.5 h, 100 ug/ml [6]: 77%
AUC(0-t) at 6 h [9]: 5.27 µM·h
Cmax [10]: 7.06 µM
AUC(0-inf) [14]: 8.88 µM·h
remaining at 2 h, 100 ug/ml [15]: 51%
remaining at 1 h, 100 ug/ml [16]: 60%
Tmax [20]: 1.98 min
fraction unbound [21]: 0.88
half-life [24]: 1.64 h
clearance [27]: 39.5 mL/min
remaining at 10 min, 100 ug/ml [28]: 90%
Structure (SMILES): COc1ccc(/C=C/C(=O)c2ccc3c(c2O)C=CC(C)(C)O3)cc1OCCCN1CCCC1
Activity (Mus musculus [1]): Active
Activity (HUVEC [3]): Dose-Dependent Effect
Activity (Mus musculus [5]): inactive
inhibition (A549 [7]): Dose-Dependent Effect
Activity (A549 [8]): inactive
Activity (HUVEC [11]): Non-Toxic
Activity [12]: Non-Toxic
inhibition (A549 [13]): Active
Activity (Mus musculus [17]): Active
Activity (A549 [18]): Active
Activity [19]: Non-Toxic
IC50 (A549 [22]; A549, 48 h): 8.88 µM
IC20 (A549 [22]; A549, time 48 hrs): 4.19 µM
Activity [23]: Non-Toxic
IC50 at 48 h [25]: 19.6 µM
IC20 at 48 h ([25]; time 48 hrs): 10.6 µM
Activity [26]: Non-Toxic
Activity [29]: Non-Toxic
